According to PMC9147695, “Design, Synthesis, Bioactivity Evaluation, Crystal Structures, and In Silico Studies of New α-Amino Amide Derivatives as Potential Histone Deacetylase 6 Inhibitors” (Molecules, 2022):
Read-outs that look alike come from different tables or passages of the source.

How the values were obtained:
[1] = test system: Hela; assay: Anti-proliferative activity, CTG assay, Hela cells; assay type: cell-based; details: 72 h; for inhibition at 10 µM / inhibition at 50 µM: read-out: Inhibition rate Hela (%)
Description: (§1) RPMI 8226 and HL-7702 cells were cultured in RPMI-1640 medium, Hela cells were cultured in MEM medium, and HL-60 cells were cultured in IMDM medium with 1% penicillin–streptomycin solution and 10% FBS, respectively. The above cells were cultured at 37 °C and 5% CO2. After 24 h of cell spreading, 99 μL of medium per well was prepared and 1 μL of the compound prepared solution was added to the wells. Then, the solution was incubated at 37 °C in a 5% CO2 incubator for 72 h. The cell plates to be tested were left at room temperature and 100 μL of medium per well was discarded. Then, 100 μL of CTG reagent was added, placed in a rapid shaker for 2 min, and left at room temperature away from light for 30 min. The chemiluminescence signal was read by an envision multifunctional enzyme marker. The inhibition ratios and IC50 values were calculated using Prism Graph Pad software.

[2] = test system: HL-60; assay: Anti-proliferative activity, CTG assay, HL-60 cells; assay type: cell-based; details: for inhibition at 10 µM / inhibition at 50 µM: read-out: Inhibition rate HL-60 (%)
Description: as §1

[3] = test system: RPMI 8226; assay: Anti-proliferative activity, CTG assay, RPMI 8226 cells; assay type: cell-based; details: for inhibition at 10 µM / inhibition at 50 µM: read-out: Inhibition rate RPMI 8226 (%); for IC50: read-out: RPMI8226 (IC50)
Description: as §1

[4] = Cytotoxicity toward human normal liver cells HL-7702, CTG assay; assay type: cell-based; details: human, HL-7702 normal liver cells, read-out: 50% cytotoxic concentration (CC50) HL-7702
Description: as §1

[5] = test system: HL-7702; assay: as above; assay type: cell-based; details: 72 h, read-out: 50% cytotoxic concentration (CC50) HL-7702
Description: as §1

[6] = Homo sapiens, HL-60, 72 h, 10 μM
[7] = Homo sapiens, HL-60, 72 h, 50 μM
[8] = Homo sapiens, RPMI-8226, 72 h, 10 μM
[9] = Homo sapiens, RPMI-8226, 72 h, 50 μM

| SMILES | inhibition at 10 µM ([1]; Homo sapiens, HeLa, 10 μM) | inhibition at 50 µM ([1]; Homo sapiens, HeLa, 50 μM) | melting point | inhibition at 10 µM [2, 6] | inhibition at 50 µM [2, 7] | inhibition at 10 µM [3, 8] | inhibition at 50 µM [3, 9] | CC50 at 72 h [4] | IC50 ([2]; Homo sapiens, HL-60, 72 h) | IC50 ([3]; Homo sapiens, RPMI-8226, 72 h) | also measured |
| --- | --- | --- | --- | --- | --- | --- | --- | --- | --- | --- | --- |
| COC(=O)[C@H]1CCCN1S(=O)(=O)c1ccc(-c2ccc(NC(=O)[C@H](C)N)nc2)cc1 [7f, (2R)-1-(4-{6-[(2S)-2-Aminopropionamido]pyridin-3-yl}benzenesulfonyl)pyrrolidine-2-carboxylate Methyl Ester] | -2.62 ± 1.36% | 21.6 ± 6.65% | 146.2 to 148.9 °C | 11.1 ± 0.74% | 28.2 ± 0.98% | -4.38 ± 0.19% | 29.4 ± 5.22% |  |  |  |  |
| COC(=O)[C@@H]1CCCN1S(=O)(=O)c1ccc(-c2ccc(NC(=O)[C@@H](C)N)nc2)cc1 [13e, Methyl (2S)-1-(4-{6-[(2R)-2-Aminopropionamido]pyridin-3-yl}benzenesulfonyl)pyrrolidine-2-carboxylate] | -12.6 ± 1.59% | 81.6 ± 1.09% | 146.2 to 148.9 °C | 17.43 ± 0.16% | 99.98 ± 0.05% | 5.5 ± 1.12% | 94.89 ± 0.02% |  |  |  |  |
| COC(=O)[C@@H]1CCCN1S(=O)(=O)c1ccc(-c2ccc(NC(=O)[C@H](C)N)cc2)cc1 [13c, Methyl (2S)-1-(4-{4-[(2S)-2-Aminopropionamido]phenyl}benzenesulfonyl)pyrrolidine-2-carboxylate] | -3.69 ± 0.34% | 72.3 ± 1.57% | 155.3 to 157.6 °C | 20 ± 2.83% | 96.55 ± 0.22% | 29.6 ± 0.48% | 82.9 ± 2.04% | 43.7 µM | 30.9 µM | 10.7 µM | IC50 ([1]; Homo sapiens, HeLa): 20.6 µM |
| COC(=O)C1CCCN1S(=O)(=O)c1ccc(-c2ccc(NC(=O)CN)cc2)cc1 [13a, (2S)-Methyl 1-{4-[4-[4-(2-Aminoacetamido)phenyl]benzenesulfonyl}pyrrolidine-2-carboxylate] | 98.74 ± 0.04% | 99.68 ± 0.17% |  | 59 ± 2.12% | 99.25 ± 0.08% | 63.1 ± 1.99% | 99.89 ± 0.06% |  |  |  | IC50 [1]: 5.19 µM; CC50 [5]: 27.5 µM; IC50 ([2]; 72 h): 7.23 µM; IC50 ([3]; 72 h): 5.85 µM |
| COC(=O)[C@H]1CCCN1S(=O)(=O)c1ccc(-c2ccc(NC(=O)[C@@H](C)N)cc2)cc1 [7b, (2R)-1-(4-{4-[(2R)-2-Aminopropionamido]phenyl}benzenesulfonyl)pyrrolidine-2-carboxylate Methyl Ester] | -10.9 ± 2.58% | 2.44 ± 0.72% | 157.4 to 159.1 °C | 4.32 ± 1.35% | 46.9 ± 1.33% | -4.81 ± 3.62% | 41.4 ± 1.25% |  |  |  |  |
| COC(=O)[C@H]1CCCN1S(=O)(=O)c1ccc(-c2ccc(NC(=O)CN)nc2)cc1 [7d] | -5.24 ± 0.18% | 41.8 ± 2.62% | 170.2 to 173.5 °C | 5.53 ± 1.21% | 16.9 ± 1.74% | 1.7 ± 0.72% | 89.7 ± 1.48% |  |  |  |  |
| COC(=O)[C@@H]1CCCN1S(=O)(=O)c1ccc(-c2ccc(NC(=O)CN)nc2)cc1 [13d] | -18.4 ± 2.15% | 33.4 ± 1.97% | 170.3 to 172.9 °C | 32 ± 3.2% | 99.93 ± 0.05% | 0.01 ± 0.52% | 92.27 ± 0.08% |  | 10.5 µM | 32.2 µM | IC50 ([1]; Homo sapiens, HeLa): 17.4 µM |
| O=C(CCCCCCC(=O)Nc1ccccc1)NO [SAHA, vorinostat, reference compound] |  |  |  |  |  |  |  | 2.03 µM |  |  |  |
| COC(=O)[C@@H]1CCCN1S(=O)(=O)c1ccc(-c2ccc(NC(=O)[C@@H](C)N)cc2)cc1 [13b, (2S)-1-(4-{4-[(2R)-2-Aminopropionamido]phenyl}benzenesulfonyl)pyrrolidine-2-carboxylate Methyl Ester] | -4.83 ± 3.13% | 62.27 ± 0.57% | 156.4 to 159.1 °C | 43.49 ± 0.21% | 100.03 ± 0.04% | 0.89 ± 3.52% | 97.45 ± 0.36% | 89.1 µM | 10.3 µM | 25.2 µM | IC50 ([1]; Homo sapiens, HeLa): 20.6 µM |
| COC(=O)[C@H]1CCCN1S(=O)(=O)c1ccc(-c2ccc(NC(=O)[C@H](C)N)cc2)cc1 [7c, Methyl (2R)-1-(4-{4-[(2S)-2-Aminopropionamido]phenyl}benzenesulfonyl)pyrrolidine-2-carboxylate] | -13.5 ± 1.33% | 8.63 ± 2.03% | 155.1 to 158.3 °C | 2.78 ± 0.7% | 49.6 ± 0.82% | 1.42 ± 0.97% | 49.7 ± 1.35% |  |  |  |  |
| COC(=O)C1CCCN1S(=O)(=O)c1ccc(-c2ccc(NC(=O)CN)cc2)cc1 [7a, (2R)-Methyl 1-{4-[4-[4-(2-Aminoacetamido)phenyl]benzenesulfonyl}pyrrolidine-2-carboxylate] |  |  | 163.4 to 165.3 °C |  |  |  |  | 21.1 µM | 10.8 µM | 4.16 µM | Inhibition rate Hela (%) ([1]; 10 μM): 98.11 ± 1.33%; Inhibition rate Hela (%) ([1]; 50 μM): 99.84 ± 0.11%; IC50 [1]: 0.31 µM; Inhibition rate HL-60 (%) ([2]; 10 μM, 72 h): 42.45 ± 1.11%; Inhibition rate HL-60 (%) ([2]; 50 μM, 72 h): 97.24 ± 0.02%; Inhibition rate RPMI 8226 (%) ([3]; 10 μM, 72 h): 74.54 ± 1.06%; Inhibition rate RPMI 8226 (%) ([3]; 50 μM, 72 h): 99.78 ± 0.03% |
| COC(=O)[C@@H]1CCCN1S(=O)(=O)c1ccc(-c2ccc(NC(=O)[C@H](C)N)nc2)cc1 [13f, (2S)-1-(4-{6-[(2S)-2-Aminopropionamido]pyridin-3-yl}benzenesulfonyl)pyrrolidine-2-carboxylate Methyl Ester] | -6.37 ± 0.44% | 91.57 ± 0.51% | 146.8 to 149.1 °C | 13.9 ± 0.73% | 99.81 ± 0.12% | 12.4 ± 0.52% | 89.23 ± 0.24% |  |  |  |  |
| COC(=O)[C@H]1CCCN1S(=O)(=O)c1ccc(-c2ccc(NC(=O)[C@@H](C)N)nc2)cc1 [7e, Methyl (2R)-1-(4-{6-[(2R)-2-Aminopropionamido]pyridin-3-yl}benzenesulfonyl)pyrrolidine-2-carboxylate] | -11.9 ± 1.69% | 7.27 ± 0.41% | 146 to 148.4 °C | -0.89 ± 2.31% | 17.8 ± 0.86% | -2.63 ± 2.86% | 24.4 ± 0.79% |  |  |  |  |
